# Assay results reported in patent US8686150B2 (Sanofi, priority 2011, dated 2014).
# Molecular target: T1, human full-length recombinant PKC βII (Homo sapiens, UniProt P05771)
# T1 construct: Active human full-length recombinant PKC βII; purchased Invitrogen GmbH, Darmstadt, Germany
# Assay: Determination of PKC βII inhibition (Caliper mobility-shift kinase assay, Fluorescein-RFARKGSLRQKNV peptide substrate)
# Type: biochemical
# Settings: example compounds at a final concentration of 1.14 μM (±0.15 μM)
# Procedure, shortened: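 Compounds were tested at 1.14 μM final. Enzyme was activated by PS, DAG and CaCl2 in Hepes pH 7.4 with MgCl2, with substrate 3 μM and ATP 120 μM as pre-mix concentrations. After 60 min at 32 °C and an EDTA stop, Caliper separation gave fractional turnover, which was normalised to no-compound and no-enzyme controls.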
# T1 sequence (P05771 1-673 isoform P05771-2): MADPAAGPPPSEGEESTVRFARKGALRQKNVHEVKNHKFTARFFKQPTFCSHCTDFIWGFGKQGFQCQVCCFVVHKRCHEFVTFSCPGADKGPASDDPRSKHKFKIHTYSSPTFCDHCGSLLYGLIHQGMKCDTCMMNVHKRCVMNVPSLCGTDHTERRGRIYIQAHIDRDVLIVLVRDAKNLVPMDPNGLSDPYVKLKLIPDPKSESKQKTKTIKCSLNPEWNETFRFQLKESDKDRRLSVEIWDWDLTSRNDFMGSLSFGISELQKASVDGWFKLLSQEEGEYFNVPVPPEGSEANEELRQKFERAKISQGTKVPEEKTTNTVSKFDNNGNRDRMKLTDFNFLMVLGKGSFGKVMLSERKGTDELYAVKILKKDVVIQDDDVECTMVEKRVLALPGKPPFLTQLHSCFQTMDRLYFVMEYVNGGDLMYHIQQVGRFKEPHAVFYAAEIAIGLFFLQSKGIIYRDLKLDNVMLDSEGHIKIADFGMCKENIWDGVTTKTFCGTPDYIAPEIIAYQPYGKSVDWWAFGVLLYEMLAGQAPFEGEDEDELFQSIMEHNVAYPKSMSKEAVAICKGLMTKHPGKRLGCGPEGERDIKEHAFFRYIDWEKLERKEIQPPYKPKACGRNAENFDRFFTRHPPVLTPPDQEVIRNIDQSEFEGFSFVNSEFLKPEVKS
row,Compound,inhibition at 1.14 µM [%]
1,"Cc1n[nH]c2nc(-c3ccc(O)cc3)cc(C(=O)N3CCNC[C@H]3Cc3ccccc3)c12 [Example 224, ((R)-2-Benzyl-piperazin-1-yl)-[6-(4-hydroxy-phenyl)-3-methyl-1H-pyrazolo[3,4-b]pyridin-4-yl]-methanone]",92
2,"CCc1n[nH]c2nc(-c3ccc(O)cc3)cc(C(=O)NC3CCCN(CC)C3)c12 (centres unmarked) [Example 175, 3-Ethyl-6-(4-hydroxy-phenyl)-1H-pyrazolo[3,4-b]pyridine-4-carboxylic acid (1-ethyl-piperidin-3-yl)-amide]",46
3,"CCc1n[nH]c2nc(-c3ccc(O)cc3)cc(C(=O)NCC3CCC(=O)N3)c12 (centres unmarked) [Example 186, 3-Ethyl-6-(4-hydroxy-phenyl)-1H-pyrazolo[3,4-b]pyridine-4-carboxylic acid (5-oxo-pyrrolidin-2-ylmethyl)-amide]",33
4,"Cc1n[nH]c2nc(-c3ccc(O)cc3)cc(C(=O)N3CCC[C@@H](CN)C3)c12 [Example 110, ((S)-3-Aminomethyl-piperidin-1-yl)-[6-(4-hydroxy-phenyl)-3-methyl-1H-pyrazolo[3,4-b]pyridin-4-yl]-methanone]",65
5,"CCN1CCCC(NC(=O)c2cc(-c3ccc(O)cc3)nc3[nH]nc(C)c23)C1 (centres unmarked) [Example 273, 6-(4-Hydroxy-phenyl)-3-methyl-1H-pyrazolo[3,4-b]pyridine-4-carboxylic acid (1-ethyl-piperidin-3-yl)-amide]",83
6,"Cc1n[nH]c2nc(-c3ccc(O)cc3)cc(C(=O)NC3CCN(C4CCCCC4)CC3)c12 [Example 279, 6-(4-Hydroxy-phenyl)-3-methyl-1H-pyrazolo[3,4-b]pyridine-4-carboxylic acid (1-cyclohexyl-piperidin-4-yl)-amide]",78
7,"Cc1n[nH]c2nc(-c3ccc(O)cc3)cc(C(=O)N3CC(N)C3)c12 [Example 247, (3-Amino-azetidin-1-yl)-[6-(4-hydroxy-phenyl)-3-methyl-1H-pyrazolo[3,4-b]pyridin-4-yl]-methanone]",69
8,"Cc1n[nH]c2nc(-c3ccc(O)cc3)cc(C(=O)N[C@@H]3CCC[C@H]3N)c12 [Example 120, 6-(4-Hydroxy-phenyl)-3-methyl-1H-pyrazolo[3,4-b]pyridine-4-carboxylic acid ((1R,2R)-2-amino-cyclopentyl)-amide]",88
9,"Cc1n[nH]c2nc(-c3ccc(O)cc3)cc(C(=O)NC3CCCC[C@@H]3N)c12 (mixture of isomers) [Example 123, 6-(4-Hydroxy-phenyl)-3-methyl-1H-pyrazolo[3,4-b]pyridine-4-carboxylic acid (trans-2-amino-cyclohexyl)-amide]",75
10,"CCc1n[nH]c2nc(-c3ccc(O)cc3)cc(C(=O)N3CCC4(CCCNC4)C3)c12 (centres unmarked) [Example 173, (2,7-Diaza-spiro[4.5]dec-2-yl)-[3-ethyl-6-(4-hydroxy-phenyl)-1H-pyrazolo[3,4-b]pyridin-4-yl]-methanone]",58
11,"CCc1n[nH]c2nc(-c3ccc(O)cc3)cc(C(=O)NC3CC4(CCNCC4)c4ccccc43)c12 (centres unmarked) [Example 181, 3-Ethyl-6-(4-hydroxy-phenyl)-1H-pyrazolo[3,4-b]pyridine-4-carboxylic acid (2,3-dihydrospiro[1H-indene-1,4′-piperidin]-3-yl)-amide]",77
12,"CN[C@H]1CN(C(=O)c2cc(-c3ccc(O)cc3)nc3[nH]nc(C)c23)CC[C@H]1C (racemic) [Example 229, [6-(4-Hydroxy-phenyl)-3-methyl-1H-pyrazolo[3,4-b]pyridin-4-yl]-(cis-4-methyl-3-methylamino-piperidin-1-yl)-methanone]",79
13,"CNC1CCN(C(=O)c2cc(-c3ccc(O)cc3)nc3[nH]nc(C)c23)CC1 [Example 109, [6-(4-Hydroxy-phenyl)-3-methyl-1H-pyrazolo[3,4-b]pyridin-4-yl]-(4-methylamino-piperidin-1-yl)-methanone]",88
14,"CCCC1(N)CCN(C(=O)c2cc(-c3ccc(O)cc3)nc3[nH]nc(C)c23)CC1 [Example 46, (4-Amino-4-propyl-piperidin-1-yl)-[6-(4-hydroxy-phenyl)-3-methyl-1H-pyrazolo[3,4-b]pyridin-4-yl]-methanone]",76
15,"Cc1cc(O)ccc1-c1cc(C(=O)N2CCNCC2c2ccc(Br)cc2)c2c(C)n[nH]c2n1 (centres unmarked) [Example 137, [2-(4-Bromo-phenyl)-piperazin-1-yl]-[6-(4-hydroxy-2-methyl-phenyl)-3-methyl-1H-pyrazolo[3,4-b]pyridin-4-yl]-methanone]",99
16,"COC(=O)C1(N)CCN(C(=O)c2cc(-c3ccc(O)cc3)nc3[nH]nc(C)c23)CC1 [Example 283, 4-Amino-1-[6-(4-hydroxy-phenyl)-3-methyl-1H-pyrazolo[3,4-b]pyridine-4-carbonyl]-piperidine-4-carboxylic acid methyl ester]",45
17,"Cc1n[nH]c2nc(-c3ccc(O)cc3)cc(C(=O)NC3CC4CCC(C3)N4C)c12 (centres unmarked) [Example 219, 6-(4-Hydroxy-phenyl)-3-methyl-1H-pyrazolo[3,4-b]pyridine-4-carboxylic acid (8-methyl-8-aza-bicyclo[3.2.1]oct-3-yl)-amide]",89

# The next lines start with the values.
row,inhibition at 1.14 µM [%],Compound
1,99,"Cc1n[nH]c2nc(-c3ccc(O)cc3F)cc(C(=O)N3CCNCC34CCC4)c12 [Example 439, (5,8-Diaza-spiro[3.5]non-5-yl)-[6-(2-fluoro-4-hydroxy-phenyl)-3-methyl-1H-pyrazolo[3,4-b]pyridin-4-yl]-methanone]"
2,67,"Cc1n[nH]c2nc(-c3ccc(O)c(F)c3)cc(C(=O)N3CCC4(CCNC4)C3)c12 (centres unmarked) [Example 340, (2,7-Diaza-spiro[4.4]non-2-yl)-[6-(3-fluoro-4-hydroxy-phenyl)-3-methyl-1H-pyrazolo[3,4-b]pyridin-4-yl]-methanone]"
3,54,"Cc1n[nH]c2nc(-c3ccc(O)cc3)cc(C(=O)NCCN3CCC(c4ccccc4)C3)c12 (centres unmarked) [Example 388, 6-(4-Hydroxy-phenyl)-3-methyl-1H-pyrazolo[3,4-b]pyridine-4-carboxylic acid [2-(3-phenyl-pyrrolidin-1-yl)-ethyl]-amide]"
4,59,"Cc1n[nH]c2nc(-c3ccc(O)c(F)c3)cc(C(=O)NC3CCN(C)CC3)c12 [Example 319, 6-(3-Fluoro-4-hydroxy-phenyl)-3-methyl-1H-pyrazolo[3,4-b]pyridine-4-carboxylic acid (1-methyl-piperidin-4-yl)-amide]"
5,34,"COC(=O)[C@H]1CN(C(=O)c2cc(-c3ccc(O)c(F)c3)nc3[nH]nc(C)c23)CCN1 [Example 297, (R)-4-[6-(3-Fluoro-4-hydroxy-phenyl)-3-methyl-1H-pyrazolo[3,4-b]pyridine-4-carbonyl]-piperazine-2-carboxylic acid methyl ester]"
6,30,"CCN1CCCN(C(=O)c2cc(-c3ccc(O)cc3)nc3[nH]nc(C(F)(F)F)c23)CC1 [Example 414, (4-Ethyl-[1,4]diazepan-1-yl)-[6-(4-hydroxy-phenyl)-3-trifluoromethyl-1H-pyrazolo[3,4-b]pyridin-4-yl]-methanone]"
7,73,"C[C@H]1CN(C(=O)c2cc(-c3ccc(O)cc3)nc3[nH]nc(C(F)(F)F)c23)CCN1 [Example 397, [6-(4-Hydroxy-phenyl)-3-trifluoromethyl-1H-pyrazolo[3,4-b]pyridin-4-yl]-((S)-3-methyl-piperazin-1-yl)-methanone]"
8,66,"Cc1n[nH]c2nc(-c3ccc(O)cc3)cc(C(=O)N3CC4CCCN4CC3C)c12 (centres unmarked) [Example 284, [6-(4-Hydroxy-phenyl)-3-methyl-1H-pyrazolo[3,4-b]pyridin-4-yl]-(3-methyl-hexahydro-pyrrolo[1,2-a]pyrazin-2-yl)-methanone]"
9,64,"Cc1n[nH]c2nc(-c3ccc(O)c(F)c3)cc(C(=O)N3CCOC4(CCNCC4)C3)c12 [Example 344, [6-(3-Fluoro-4-hydroxy-phenyl)-3-methyl-1H-pyrazolo[3,4-b]pyridin-4-yl]-(1-oxa-4,9-diaza-spiro[5.5]undec-4-yl)-methanone]"
10,24,"Cc1n[nH]c2nc(-c3ccc(O)cc3)cc(C(=O)N3CCC(Nc4ccccc4)C3)c12 (centres unmarked) [Example 385, [6-(4-Hydroxy-phenyl)-3-methyl-1H-pyrazolo[3,4-b]pyridin-4-yl]-(3-phenylamino-pyrrolidin-1-yl)-methanone]"
11,100,"Cc1n[nH]c2nc(-c3ccc(O)cc3F)cc(C(=O)N3CCN[C@@H](C)C3)c12 [Example 424, [6-(2-Fluoro-4-hydroxy-phenyl)-3-methyl-1H-pyrazolo[3,4-b]pyridin-4-yl]-((S)-3-methyl-piperazin-1-yl)-methanone]"
12,98,"Cc1n[nH]c2nc(-c3ccc(O)cc3F)cc(C(=O)N3CC(C)NCC34CCCC4)c12 (centres unmarked) [Example 438, [6-(2-Fluoro-4-hydroxy-phenyl)-3-methyl-1H-pyrazolo[3,4-b]pyridin-4-yl]-(8-methyl-6,9-diaza-spiro[4.5]dec-6-yl)-methanone]"
13,77,"Cc1n[nH]c2nc(-c3ccc(O)c(F)c3)cc(C(=O)NC3CC4CC3CN4)c12 (centres unmarked) [Example 350, 6-(3-Fluoro-4-hydroxy-phenyl)-3-methyl-1H-pyrazolo[3,4-b]pyridine-4-carboxylic acid (2-aza-bicyclo[2.2.1]hept-5-yl)-amide]"
14,21,"CC(=O)N1CCC(NC(=O)c2cc(-c3ccc(O)c(F)c3)nc3[nH]nc(C)c23)CC1 [Example 357, 6-(3-Fluoro-4-hydroxy-phenyl)-3-methyl-1H-pyrazolo[3,4-b]pyridine-4-carboxylic acid (1-acetyl-piperidin-4-yl)-amide]"
15,64,"COc1ccc(C(CNC(=O)c2cc(-c3ccc(O)cc3)nc3[nH]nc(C)c23)N(C)C)cc1 (centres unmarked) [Example 376, 6-(4-Hydroxy-phenyl)-3-methyl-1H-pyrazolo[3,4-b]pyridine-4-carboxylic acid [2-dimethylamino-2-(4-methoxy-phenyl)-ethyl]-amide]"
